# In US20240207265A1, “TREATMENT OF CNS DISEASES WITH sGC STIMULATORS” (Tisento Therapeutics Inc., priority 2021, published 2024):
# How the values were obtained:
# [1] = Non-human primate CSF pharmacokinetics (Study A); type: in vivo, Cynomolgus monkeys; conditions: female, cynomolgus monkey, NHP CSF (cisterna magna)/unbound plasma, sodium salt
# Description: PK in NHP was determined following oral dosing (PO). A group of 4 female Cynomolgus monkeys were used for studying each compound. Compound I-20 sodium salt was formulated as a 0.06 mg/mL solution in MilliQ water. Compound I-14 sodium salt was formulated as 0.2 mg/mL solution in MilliQ water. Formulations were shipped frozen on dry ice and then thawed and mixed thoroughly prior to dosing. PO doses of 1 mg/kg for Compound I-14 and 0.3 mg/kg for Compound I-20 were administered by oral gavage.
# Plasma and CSF samples were collected as follows: samples of CSF were collected at 3 and 24 hours post PO dosing. CSF samples (0.125 mL) were collected at the cisterna magna via direct needle puncture by direct dilution. Blood samples (0.8 mL) were collected from a peripheral vein at 0, 0.25, 0.5, 1, 2, 3, 6, 8, […], 24, 32 and 48 or 72 hours. These samples were kept on ice until processed for plasma. Blood samples were protein precipitated using acetonitrile. Plasma was directly transferred to individual tubes (0.125 mL) and K2EDTA was used as the anticoagulant. Plug caps were placed on the tubes and the tubes frozen at approximately −70° C. and stored until analysis. Plasma and CSF was collected and analyzed for the presence of compound.
# Plasma and CSF samples were analyzed using liquid chromatography (LC) with tandem mass spectrometric detection (MS/MS) using positive electrospray ionization. The standard curve range was from 0.1 to 1000 ng/mL.
# The geometrical means for the values obtained for the 4 animals in each compound's study was obtained for concentrations in CSF and in Plasma, respectively.
# Kp,uu is defined as the concentration ratio of unbound drug in CSF to unbound drug in plasma. Unbound drug in plasma (or free plasma concentration) is calculated by multiplying the total plasma concentration by the unbound fraction as determined by plasma protein binding. The CSF concentration is then divided by the free plasma concentration to determine the Kp,uu. (See e.g., Di et al., J. Med. Chem., 56, 2-12 (2013))
# [2] = tested on: MK-801-induced memory deficit; experiment: Novel Object Recognition (NOR) test, MK-801-induced memory disruption; type: in vivo, rat; conditions: for Recognition Index vs Vehicle-MK-801 group: 1 mg/kg PO 60 min prior to training, MK-801 0.1 mg/kg; for side effects in NOR study: any dose tested, oral, Long Evans rats
# Description: In the present study, a memory saving model was used. MK-801 (Dizocilpine), an uncompetitive antagonist of the NMDA receptor was used to cause deficit of recognition memory. sGC stimulators were evaluated for their efficacy to prevent memory impairment induced by MK-801.
# Adult male Long-Evans rats (275-299 gram at arrival from Envigo, Indianapolis, IN) were used in this study. Rats were placed in the experimental rooms and assigned unique identification numbers (tail marks). Rats were housed 2 per cage in polycarbonate cages with filter tops and acclimated for at least 7 days prior to testing. Animal room was maintained in a 12/12 h light/dark cycle (lights on at 07.00 EST), 22±1° C. and relative humidity at approximately 50%. Food and water were provided ad libitum. All animals were examined, handled and weighed prior to the study to assure adequate health and to minimize the non-specific stress associated with testing. Each animal was randomly assigned across the treatment groups. The experiments were conducted during the animal's light cycle phase.
# MK-801 (0.1 mg/kg; Sigma-Aldrich) was dissolved in saline and injected IP, 15 min prior to NOR training. The dose volume was 1 ml/kg.
# Galantamine (1 mg/kg; Tocris) was dissolved in saline and injected IP, 15 minutes prior to training. The dose volume was 1 ml/kg.
# Compound I-20 (0.03, 0.3 and 1 mg/kg) was formulated in vehicle (0.5% (w/w) methyl cellulose and 0.5% (w/w) Tween 80 in ultrapure water) and orally dosed 60 min prior to NOR training at 2 ml/kg dose volume.
# Compound I-14 (0.01, 0.1 and 1 mg/kg) was formulated as its Na+ salt as a solution in MilliQ water and stored as frozen aliquots. The aliquots of compound solutions and compound vehicle were stored in −80° C. and freshly thawed on each testing day. The compound and vehicle were orally dosed 60 minutes prior to NOR training. The dose volume was 10 ml/kg.
# NOR test was conducted in an open-field arena (40×40 cm) placed in a sound-attenuated room under dimmed lighting. Each rat was tested separately, and care was taken to remove olfactory/taste cues by cleaning the arena and test objects with 70% alcohol between trials and rats. All training and testing trials were video-taped and scored by an observer blind to treatments.
# On Days 1 and 2, rats were allowed to freely explore the arena (no objects inside) for a 5-minute habituation period. On Day 3 (training and testing day), rats were administered vehicle, saline and/or compound solution according to corresponding pretreatment, which is defined as time between injection and start of NOR training. Each animal was placed into the test arena in the presence of two identical objects. Each rat was placed in the arena facing the same direction at the same position, and the time spent actively exploring the objects during a 3-minute training period (T1) was recorded. The rat was returned to its home cage following training. NOR test (T2) was conducted 1 hour after T1. Each rat was placed back into the test arena in the presence of one familiar object and one novel object for 5 minutes, and the time spent exploring both objects was recorded. […]
# Data of NOR test (T2) were expressed as Recognition Index, which is defined as the ratio of the time spent exploring the novel object over the total time spent exploring both objects (Novel/(Familiar+Novel)×100%) during the test session.
# For Compound I-14, data were analyzed in two batches separately. […] Data were analyzed with t-test to evaluate the validity of the test. […]
Kp uu at 3 h ([1]; PO 1 mg/kg),Kp uu at 24 h ([1]; PO 1 mg/kg),Kp uu at 3 h ([1]; PO 0.3 mg/kg),Kp uu at 24 h ([1]; PO 0.3 mg/kg),Compound,Recognition Index vs Vehicle-MK-801 group ([2]; 0-1 minute time range),Recognition Index vs Vehicle-MK-801 group ([2]; 0-3 minute time range),Recognition Index vs Vehicle-MK-801 group ([2]; 0-5 minute time range),side effects in NOR study [2]
2 to 3,> 3,–,–,"Cc1cc(F)c(Cc2nc(-c3ncc(F)c(O)n3)cn3ccnc23)cc1F [Compound I-14, 5-fluoro-2-(8-(2,5-difluoro-4-methylbenzyl)imidazo[1,2-a]pyrazin-6-yl)pyrimidin-4-ol]",reversed the deficit,trend (P<0.10) in reversing MK-801-induced memory deficit,significantly higher Recognition Index,None of the rats in this study showed obvious side effects at any dose
–,–,≤ 1,1 to 2,"Oc1nc(-c2cn3ccnc3c(Cc3cc(F)ccc3F)n2)ncc1F [Compound I-20, 5-fluoro-2-(8-(2,5-difluorobenzyl)imidazo[1,2-a]pyrazin-6-yl)pyrimidin-4-ol]",–,–,–,None of the rats in this study showed obvious side effects at any dose
